This assay deals with Maize seedlings. Put plainly: Maize seedlings shoot weight (seed treatment, greenhouse). It counts as in vivo. The method, then: Maize seeds are grown in loamy sand in the greenhouse at 20 C and 70% humidity for 11 days. After 11 days seedlings were cut off above the soil and fresh weight was determined. Compounds are applied at the following concentration: Poncho™ (pesticidal product comprising clothianidin as active ingredient): 250 μg of clothianidin/kernel; VOTiVO™ (product based on the natural soil bacteria Bacillus firmus (strain I-1582): 50 μg/kernel; Compound A of formula (I): 0.01 μg/kernel. The test is evaluated 11 days after the application. 100% means shoot weight which corresponds to that of the untreated control. Efficacy means in this case the additional % of shoot weight in comparison to that of the untreated control.

As for `CCCCCC/C=C\CCCOc1cccc(C(=O)N[C@@H]2C(O[C@H]3C(O)C(NC(C)=O)C(OC4C(CO)O[C@@H](O[C@H]5C(O)C(NC(C)=O)C(OC6C(CO)OC(O)[C@@H](NC(C)=O)[C@@H]6O)O[C@H]5CO)[C@@H](NC(C)=O)[C@@H]4O)O[C@H]3CO)OC(CO)[C@@H](O)[C@@H]2O)c1` (stereo partly drawn) [Compound A of formula (I)], the Efficacy % (additional % of shoot weight in comparison to untreated control, 11 days after application) was 7%. In addition, for the setting “fresh weight after 11 days in loamy sand, greenhouse 20 C, 70% humidity, clothianidin 250 μg/kernel, VOTiVO 50 μg/kernel, Compound A 0.01 μg/kernel”, the “Seedling shoot weight (g) (Average on 3 replicates)” value is recorded as 15.3 g. The Found % (shoot weight relative to untreated control (100%), 11 days after application, same application rates) was 107%.

The values are drawn from patent US9445589B2, “Active compounds combinations comprising a lipo-chitooligosaccharide derivative and a nematicide, insecticidal or fungicidal compound” (Bayer CropScience AG, priority 2012, dated 2016).
